Assay results: patent US20260365670A1, “EGFR INHIBITORS AND USES THEREOF” (DIZAL (JIANGSU) PHARMACEUTICAL CO., LTD., priority 2022, published 2026)
Like-named read-outs stand apart in the source and are kept apart here.

Assays:
[1] = target: T1, EGFR Exon19Del (Homo sapiens, UniProt P00533, DEL746-750); test: Inhibition of EGFR Exon19Del biochemical enzymatic activity (HTRF); settings: EGFR Del19, 1 mM ATP, 1 h, room temperature, read-out: IC50 @Del19
T1 construct: purchased Carna Bio
How it was run: (§1)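 Time-resolved FRET assay of EGFR substrate phosphorylation. Conditions: 1 μM TK substrate-biotin, 1 mM ATP, Mg/Mn buffer, 1 h at RT. IC50 from 4-parameter curve fit.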

[2] = target: T2, EGFR[T790M/C797S/L858R] (Homo sapiens, UniProt P00533, C797S/L858R/T790M); test: Inhibition of EGFR[T790M/C797S/L858R] biochemical enzymatic activity (HTRF); settings: EGFR T790M-C797S-L858R, 1 mM ATP, 1 h, room temperature, read-out: IC50 (nM) @T790M- C797S - L858R
T2 construct: purchased Carna Bio
How it was run: as §1

[3] = target: T3, EGFR Exon19Del/T790M (Homo sapiens, UniProt P00533, DEL746-750/T790M); test: Inhibition of EGFR Exon19Del/T790M biochemical enzymatic activity (HTRF); settings: EGFR Del19-T790M, 1 mM ATP, 1 h, room temperature, read-out: IC50 (nM) @Del19-T790M
T3 construct: purchased Carna Bio
How it was run: as §1

[4] = test system: Ba/F3 cells expressing EGFR mutations; test: Cell proliferation assay, Ba/F3 cells expressing EGFR mutations (CellTiter-Glo, 72 hours); format: cell-based; settings: Mus musculus, BaF3, 72 h, CellTiter-Glo
How it was run: (§2)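 Growth over 72 h was quantified by CellTiter-Glo luminescence, normalised as (G3 − G0)/(DMSO G3 − G0), for PC-9 cells seeded at 500/well and EGFR-mutant Ba/F3 cells at 5000/well in RPMI1640. Compound concentration series added after overnight incubation; GI50 obtained from best-fit curves.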

[5] = test system: PC-9; test: Cell proliferation assay, PC-9 cells (CellTiter-Glo, 72 hours); format: cell-based; settings: Homo sapiens, PC-9, 72 h, PC9 cells, CellTiter-Glo, read-out: PC9 GI50
How it was run: as §2

[6] = target: T4, EGFR[T790M/C797S/d746-750] (Homo sapiens, UniProt P00533, C797S/DEL746-750/T790M); test: Inhibition of EGFR[T790M/C797S/d746-750] biochemical enzymatic activity (HTRF); settings: EGFR T790M-C797S-Del19, 1 mM ATP, 1 h, room temperature, read-out: IC50 (nM) @T790M - C797S - Del19
T4 construct: purchased Carna Bio
How it was run: as §1

[7] = target: T5, EGFR L858R (Homo sapiens, UniProt P00533, L858R); test: Inhibition of EGFR L858R biochemical enzymatic activity (HTRF); settings: 1 mM ATP, 1 h, room temperature, read-out: IC50 (nM) @L858R
T5 construct: purchased Carna Bio
How it was run: as §1

[8] = target: T6, EGFR (C797S L858R) (Homo sapiens, UniProt P00533, C797S/L858R); test: Inhibition of EGFR (C797S L858R) biochemical enzymatic activity (HTRF); settings: EGFR L858-C797S, 1 mM ATP, 1 h, room temperature, read-out: IC50 (nM) @L858-C797S
T6 construct: purchased signalchem
How it was run: as §1

[9] = target: T7, EGFR wild type (Homo sapiens, UniProt P00533); test: Inhibition of EGFR wild type biochemical enzymatic activity (HTRF); settings: EGFR WT, 1 mM ATP, 1 h, room temperature, read-out: IC50 (nM) @WT
T7 construct: purchased Carna Bio
How it was run: as §1

[10] = test system: A-431; test: Cell proliferation GI50, A-431 cells (Table 6); format: cell-based; settings: Homo sapiens, A-431, A-431 cells
[11] = target: T8, EGFR (d746-750 C797S) (Homo sapiens, UniProt P00533, C797S/DEL746-750); test: Inhibition of EGFR (d746-750 C797S) biochemical enzymatic activity (HTRF); settings: EGFR Del19-C797S, 1 mM ATP, 1 h, room temperature, read-out: IC50 (nM) @Del19-C797S
T8 construct: purchased signalchem
How it was run: as §1

[12] = target: T9, EGFR L858R/T790M (Homo sapiens, UniProt P00533, L858R/T790M); test: Inhibition of EGFR L858R/T790M biochemical enzymatic activity (HTRF); settings: EGFR L858R-T790M, 1 mM ATP, 1 h, room temperature, read-out: IC50 (nM) @L858R-T790M
T9 construct: purchased Carna Bio
How it was run: as §1

[13] = BaF3 cells, EGFR DEL19-C797S, read-out: DEL19-C797S/BaF3 GI50
[14] = BaF3 cells, EGFR DEL19-T790-C797S, read-out: DEL19-T790-C797S/BaF3 GI50
[15] = BaF3 cells, EGFR L858R, read-out: L858R/BaF3 GI50
[16] = BaF3 cells, EGFR L858R-C797S, read-out: L858R-C797S/BaF3 GI50
[17] = BaF3 cells, EGFR L858R-T790-C797S, read-out: L858R-T790-C797S/BaF3 GI50
[18] = BaF3 cells, EGFR L858R-T790M, read-out: L858R-T790M/BaF3 GI50
[19] = EGFR DEL19-T790M, read-out: DEL19-T790M GI50

T8 sequence (P00533 with tags, fused parts or gaps DEL746-750/C797S limits assumed): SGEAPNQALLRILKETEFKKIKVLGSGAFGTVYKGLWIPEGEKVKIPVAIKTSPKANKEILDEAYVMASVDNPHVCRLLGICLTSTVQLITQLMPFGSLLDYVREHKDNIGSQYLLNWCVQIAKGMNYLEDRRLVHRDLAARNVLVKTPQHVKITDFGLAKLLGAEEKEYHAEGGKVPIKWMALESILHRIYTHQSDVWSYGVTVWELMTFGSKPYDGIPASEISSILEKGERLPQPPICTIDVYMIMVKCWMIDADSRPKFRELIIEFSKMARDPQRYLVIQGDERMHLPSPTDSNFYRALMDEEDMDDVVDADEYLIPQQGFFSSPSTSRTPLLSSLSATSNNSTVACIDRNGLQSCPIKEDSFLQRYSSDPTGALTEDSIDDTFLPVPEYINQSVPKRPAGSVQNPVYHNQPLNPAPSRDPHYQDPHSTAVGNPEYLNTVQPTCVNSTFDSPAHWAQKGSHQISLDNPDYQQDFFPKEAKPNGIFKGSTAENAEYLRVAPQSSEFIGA
T1 sequence (P00533 with tags, fused parts or gaps DEL746-750 limits assumed): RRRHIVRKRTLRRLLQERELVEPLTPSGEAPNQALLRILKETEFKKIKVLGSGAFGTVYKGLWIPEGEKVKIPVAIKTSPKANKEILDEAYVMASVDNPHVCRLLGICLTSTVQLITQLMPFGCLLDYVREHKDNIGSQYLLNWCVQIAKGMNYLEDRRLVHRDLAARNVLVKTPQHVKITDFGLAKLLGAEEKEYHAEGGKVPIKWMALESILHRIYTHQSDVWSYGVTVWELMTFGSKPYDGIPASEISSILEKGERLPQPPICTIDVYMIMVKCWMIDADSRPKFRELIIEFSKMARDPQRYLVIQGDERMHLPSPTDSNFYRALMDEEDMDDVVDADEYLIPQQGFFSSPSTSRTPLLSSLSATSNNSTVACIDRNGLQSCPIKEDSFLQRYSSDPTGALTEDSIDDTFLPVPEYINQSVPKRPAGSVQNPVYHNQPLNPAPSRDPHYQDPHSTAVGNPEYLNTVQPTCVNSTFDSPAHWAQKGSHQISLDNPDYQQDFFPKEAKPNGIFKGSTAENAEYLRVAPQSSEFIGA
T4 sequence (P00533 with tags, fused parts or gaps DEL746-750/T790M/C797S limits assumed): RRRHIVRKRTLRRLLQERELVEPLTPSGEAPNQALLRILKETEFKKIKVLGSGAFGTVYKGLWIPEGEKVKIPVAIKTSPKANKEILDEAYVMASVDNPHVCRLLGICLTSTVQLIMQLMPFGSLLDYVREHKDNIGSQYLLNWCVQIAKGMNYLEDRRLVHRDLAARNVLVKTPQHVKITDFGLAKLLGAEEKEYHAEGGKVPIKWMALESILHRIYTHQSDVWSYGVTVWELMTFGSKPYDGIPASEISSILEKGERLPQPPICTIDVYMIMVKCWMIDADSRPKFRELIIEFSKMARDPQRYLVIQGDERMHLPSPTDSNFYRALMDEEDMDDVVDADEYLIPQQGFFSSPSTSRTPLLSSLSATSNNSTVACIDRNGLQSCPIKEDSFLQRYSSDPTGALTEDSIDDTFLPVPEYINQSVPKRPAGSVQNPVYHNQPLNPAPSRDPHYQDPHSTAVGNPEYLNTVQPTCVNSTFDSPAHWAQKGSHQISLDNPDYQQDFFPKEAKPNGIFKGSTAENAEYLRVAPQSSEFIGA
T7 sequence (P00533 25-1210): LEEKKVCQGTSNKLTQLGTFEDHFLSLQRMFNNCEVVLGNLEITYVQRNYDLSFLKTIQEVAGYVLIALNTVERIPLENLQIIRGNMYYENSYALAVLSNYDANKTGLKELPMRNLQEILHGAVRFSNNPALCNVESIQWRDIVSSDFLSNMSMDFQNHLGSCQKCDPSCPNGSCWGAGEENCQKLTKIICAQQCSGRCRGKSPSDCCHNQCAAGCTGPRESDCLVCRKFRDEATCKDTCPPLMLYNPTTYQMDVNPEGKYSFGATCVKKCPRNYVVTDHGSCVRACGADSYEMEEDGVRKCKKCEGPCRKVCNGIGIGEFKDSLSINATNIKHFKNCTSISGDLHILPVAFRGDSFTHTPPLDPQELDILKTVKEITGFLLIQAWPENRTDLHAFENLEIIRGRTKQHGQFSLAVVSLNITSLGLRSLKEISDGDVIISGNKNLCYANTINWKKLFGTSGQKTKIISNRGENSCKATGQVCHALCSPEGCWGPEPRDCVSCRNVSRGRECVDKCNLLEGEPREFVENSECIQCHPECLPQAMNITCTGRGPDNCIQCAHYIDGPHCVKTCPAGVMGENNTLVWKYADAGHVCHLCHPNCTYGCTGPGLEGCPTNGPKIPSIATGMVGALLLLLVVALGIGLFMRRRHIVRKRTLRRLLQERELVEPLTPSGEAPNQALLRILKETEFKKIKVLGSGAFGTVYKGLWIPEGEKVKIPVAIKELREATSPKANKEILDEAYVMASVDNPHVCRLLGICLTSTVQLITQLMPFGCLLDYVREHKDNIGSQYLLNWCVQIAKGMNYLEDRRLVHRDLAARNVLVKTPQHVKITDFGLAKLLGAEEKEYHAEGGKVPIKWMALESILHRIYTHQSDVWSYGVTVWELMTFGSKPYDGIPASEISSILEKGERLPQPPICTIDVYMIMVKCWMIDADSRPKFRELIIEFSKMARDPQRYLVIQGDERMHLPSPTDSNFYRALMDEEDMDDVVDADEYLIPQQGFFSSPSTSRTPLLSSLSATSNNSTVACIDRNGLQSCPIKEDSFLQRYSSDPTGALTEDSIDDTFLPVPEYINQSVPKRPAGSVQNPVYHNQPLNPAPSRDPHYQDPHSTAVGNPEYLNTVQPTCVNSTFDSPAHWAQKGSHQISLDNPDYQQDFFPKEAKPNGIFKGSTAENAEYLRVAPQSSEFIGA
T3 sequence (P00533 with tags, fused parts or gaps DEL746-750/T790M limits assumed): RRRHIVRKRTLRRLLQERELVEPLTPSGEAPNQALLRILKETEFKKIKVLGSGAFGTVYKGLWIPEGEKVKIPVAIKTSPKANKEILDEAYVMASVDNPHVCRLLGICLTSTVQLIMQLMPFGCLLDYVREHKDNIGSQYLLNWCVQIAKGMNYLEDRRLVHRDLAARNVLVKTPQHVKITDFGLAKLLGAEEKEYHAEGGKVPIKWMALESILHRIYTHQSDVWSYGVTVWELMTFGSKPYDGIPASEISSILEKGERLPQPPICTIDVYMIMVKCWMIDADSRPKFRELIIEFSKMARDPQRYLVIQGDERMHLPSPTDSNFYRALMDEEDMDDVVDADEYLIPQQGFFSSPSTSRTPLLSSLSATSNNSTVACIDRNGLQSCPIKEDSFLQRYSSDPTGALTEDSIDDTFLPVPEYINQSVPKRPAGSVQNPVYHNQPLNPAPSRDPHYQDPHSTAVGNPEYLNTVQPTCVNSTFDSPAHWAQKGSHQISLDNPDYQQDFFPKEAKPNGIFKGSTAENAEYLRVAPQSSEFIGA
T9 sequence (P00533 25-1210 T790M/L858R): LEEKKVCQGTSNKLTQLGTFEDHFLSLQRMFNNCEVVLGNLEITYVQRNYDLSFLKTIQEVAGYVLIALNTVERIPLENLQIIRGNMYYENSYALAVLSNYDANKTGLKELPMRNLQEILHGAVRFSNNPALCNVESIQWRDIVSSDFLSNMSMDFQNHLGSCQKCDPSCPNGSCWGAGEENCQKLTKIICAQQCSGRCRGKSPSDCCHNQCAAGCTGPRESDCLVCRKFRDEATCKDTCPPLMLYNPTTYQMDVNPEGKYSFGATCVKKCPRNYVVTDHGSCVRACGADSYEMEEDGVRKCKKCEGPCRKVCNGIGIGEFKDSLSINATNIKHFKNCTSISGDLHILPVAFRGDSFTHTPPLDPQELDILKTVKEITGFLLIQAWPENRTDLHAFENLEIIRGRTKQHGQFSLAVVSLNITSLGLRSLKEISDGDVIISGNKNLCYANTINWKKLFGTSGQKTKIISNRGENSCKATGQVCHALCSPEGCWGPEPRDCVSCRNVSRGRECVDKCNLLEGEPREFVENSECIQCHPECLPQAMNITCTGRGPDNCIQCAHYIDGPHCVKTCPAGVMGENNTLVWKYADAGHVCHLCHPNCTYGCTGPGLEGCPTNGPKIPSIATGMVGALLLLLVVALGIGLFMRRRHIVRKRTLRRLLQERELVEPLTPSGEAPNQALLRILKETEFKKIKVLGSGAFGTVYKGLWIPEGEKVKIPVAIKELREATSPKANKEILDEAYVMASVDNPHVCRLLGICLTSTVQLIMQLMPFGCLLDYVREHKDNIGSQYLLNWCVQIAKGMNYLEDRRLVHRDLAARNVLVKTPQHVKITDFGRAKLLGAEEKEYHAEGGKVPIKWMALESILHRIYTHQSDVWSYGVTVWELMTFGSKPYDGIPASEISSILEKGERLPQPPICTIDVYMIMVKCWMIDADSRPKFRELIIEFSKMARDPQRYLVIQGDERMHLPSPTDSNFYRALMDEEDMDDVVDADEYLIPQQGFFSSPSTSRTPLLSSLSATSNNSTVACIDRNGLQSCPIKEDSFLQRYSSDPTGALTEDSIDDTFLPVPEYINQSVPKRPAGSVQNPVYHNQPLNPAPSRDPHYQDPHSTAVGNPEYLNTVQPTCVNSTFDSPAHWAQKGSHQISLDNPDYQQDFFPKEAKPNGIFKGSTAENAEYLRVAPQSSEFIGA

| SMILES | IC50 [1] | IC50 [2] | IC50 [3] | GI50 [4, 13] | GI50 [4, 14] | GI50 [4, 15] | GI50 [4, 16] | GI50 [4, 17] | GI50 [4, 18] | GI50 [4, 19] | GI50 [5] | IC50 [6] | IC50 [7] | IC50 [8] | IC50 [9] | GI50 [10] | IC50 [11] | IC50 [12] |
| --- | --- | --- | --- | --- | --- | --- | --- | --- | --- | --- | --- | --- | --- | --- | --- | --- | --- | --- |
| CN1CCN(c2ccc3nc4n(c3c2)CCN(CC(F)(F)F)CCOc2c(cnn2C2CC2)-c2cc(cn(C)c2=O)C(=O)N4)CC1 [Example A2, 5-Cyclopropyl-26-methyl-16-(4-methylpiperazin-1-yl)-10-(2,2,2-trifluoroethyl)-7-oxa-4,5,10,13,20,22,26-heptaazapentacyclo[22.3.1.0^{2,6}.0^{13,21}.0^{14,19}]octacosa-1(28),2(6),3,14,16,18,20,24-octaene-23,27-dione] | 3.5 nM | 3.4 nM | 4.8 nM | 5.8 nM | 30 nM | 3.7 nM | 5.2 nM | 6.7 nM | 5.5 nM | 33 nM | 80 nM | 3.7 nM | 5 nM | 4.1 nM | 52 nM | 1010 nM | 3.7 nM | 4.3 nM |
| CN1CCN(c2ccc3nc4n(c3c2)CCN(CC(F)(F)F)CCOc2c(cnn2C)-c2cc(cn(C)c2=O)C(=O)N4)CC1 [Example A3, 5,26-Dimethyl-16-(4-methylpiperazin-1-yl)-10-(2,2,2-trifluoroethyl)-7-oxa-4,5,10,13,20,22,26-heptaazapentacyclo[22.3.1.0^{2,6}.0^{13,21}.0^{14,19}]octacosa-1(28),2(6),3,14,16,18,20,24-octaene-23,27-dione] | 12 nM | 8.5 nM | 9.3 nM | 16 nM | 124 nM | 9.7 nM | 11 nM | 22 nM | 30 nM | 128 nM | 236 nM | 8.9 nM | 13 nM | 10 nM | 104 nM | 1290 nM | 6.7 nM | 12 nM |
| Cn1ncc2c1OCCN1CC3(CCCC1C3)n1c(nc3ccc(N4CCOCC4)cc31)NC(=O)c1cc-2c(=O)n(C)c1 (stereo not drawn) [Example A9, 15,21-Dimethyl-5-(morpholin-4-yl)-23-oxa-2,9,11,15,20,21,26-heptaazaheptacyclo[24.4.1.1^{1,27}.1^{13,17}.0^{2,10}.0^{3,8}.0^{18,22}]tritriaconta-3,5,7,9,13,17(33),18(22),19-octaene-12,16-dione] | 264 nM | > 5000 nM | 198 nM | 55 nM | 405 nM | 608 nM | 515 nM | 607 nM | 264 nM | 364 nM | 211 nM | 316 nM | > 5000 nM | > 5000 nM | > 5000 nM | 3020 nM | 536 nM | > 5000 nM |

Further lines, results first:

| IC50 [1] | IC50 [2] | IC50 [3] | GI50 [4, 13] | GI50 [4, 14] | GI50 [4, 15] | GI50 [4, 16] | GI50 [4, 17] | GI50 [4, 18] | GI50 [4, 19] | GI50 [5] | IC50 [6] | IC50 [7] | IC50 [8] | IC50 [9] | GI50 [10] | IC50 [11] | IC50 [12] | SMILES |
| --- | --- | --- | --- | --- | --- | --- | --- | --- | --- | --- | --- | --- | --- | --- | --- | --- | --- | --- |
| 81 nM | 121 nM | 47 nM | 22 nM | 170 nM | 6.1 nM | 21 nM | 27 nM | 60 nM | 114 nM | 68 nM | 26 nM | 197 nM | 120 nM | 3550 nM | 3570 nM | 53 nM | 120 nM | Cn1ncc2c1OCCN(CC(F)(F)F)CCn1c(nc3ccccc31)NC(=O)c1cc-2c(=O)n(C)c1 [Example A1, 5,26-Dimethyl-10-(2,2,2-trifluoroethyl)-7-oxa-4,5,10,13,20,22,26-heptaazapentacyclo[22.3.1.0^{2,6}.0^{13,21}.0^{14,19}]octacosa-1(28),2(6),3,14,16,18,20,24-octaene-23,27-dione] |
| 849 nM | > 5000 nM | 704 nM | 392 nM | 1160 nM | 454 nM | 764 nM | 859 nM | 961 nM | 747 nM | 482 nM | 560 nM | > 5000 nM | > 5000 nM | > 5000 nM | 2870 nM | 628 nM | > 5000 nM | Cn1ncc2c1OCCN(C1COC1)CCn1c(nc3ccccc31)NC(=O)c1cc-2c(=O)n(C)c1 [Example A5, 5,26-Dimethyl-10-(oxetan-3-yl)-7-oxa-4,5,10,13,20,22,26-heptaazapentacyclo[22.3.1.0^{2,6}.0^{13,21}.0^{14,19}]octacosa-1(28),2(6),3,14,16,18,20,24-octaene-23,27-dione] |
| 1670 nM | > 5000 nM | 1530 nM | 204 nM | 1050 nM | 1310 nM | 919 nM | 1540 nM | 795 nM | 968 nM | 403 nM | 1230 nM | > 5000 nM | > 5000 nM | > 5000 nM | 1780 nM | 1870 nM | > 5000 nM | CCN1CCOc2c(cnn2C)-c2cc(cn(C)c2=O)C(=O)Nc2nc3ccccc3n2C(C)C1 (stereo not drawn) [Example A6, 10-Ethyl-5,12,26-trimethyl-7-oxa-4,5,10,13,20,22,26-heptaazapentacyclo[22.3.1.0^{2,6}.0^{13,21}.0^{14,19}]octacosa-1(28),2(6),3,14,16,18,20,24-octaene-23,27-dione] |
| 368 nM | > 5000 nM | 290 nM | 93 nM | 401 nM | 180 nM | 332 nM | 214 nM | 977 nM | 256 nM | 180 nM | 226 nM | > 5000 nM | 3550 nM | > 5000 nM | 3880 nM | 256 nM | > 5000 nM | Cn1ncc2c1OCCN1CCCCC(C1)n1c(nc3ccccc31)NC(=O)c1cc-2c(=O)n(C)c1 (stereo not drawn) [Example A8, 15,21-Dimethyl-23-oxa-2,9,11,15,20,21,26-heptaazahexacyclo[24.4.1.1^{13,17}.0^{2,10}.0^{3,8}.0^{18,22}]dotriaconta-3,5,7,9,13,17(32),18(22),19-octaene-12,16-dione] |
